Assay results as given in patent publication US20090291048A1, “LEUKOCYTE-BINDING POLYPEPTIDES AND USES THEREOF” (Baker IDI Heart and Diabetes Institute Holdings Limited, priority 2005, published 2009).

Tested on: GPIIb/IIIa (αIIbβ3, CD41/CD61), native or GFFKR-deleted, on CHO cells
Test: Flow cytometry cross-reactivity with GPIIb/IIIa-expressing CHO cells
Assay type: binding
Conditions: CHO cells with native (non-activated) or GFFKR-deleted (activated) GPIIb/IIIa
Procedure: Cross-reactivity with another fibrinogen binding integrin was assessed in flow cytometry using CHO cells expressing either a GFFKR-deleted and thereby activated GPIIb/IIIa or the native and thereby non-activated platelet integrin GPIIb/IIIa (details of cell generation have been described previously).^30,31 The expression of the activated conformation was determined by the binding of the activation-specific antibody Pac-1. MAN-1 binding was measured by an Alexa Fluor 488-conjugated anti-His-tag secondary antibody. […] Thus, no cross-reactivity to GPIIb/IIIa was seen. A typical result out of three experiments is shown.
Since one of the Mac-1 ligands, fibrinogen, also binds to the platelet integrin GPIIb/IIIa (αIIIbβ3, CD41/CD61) potential cross-reactivity of MAN-1 with this integrin was also evaluated. For this purpose, recombinant CHO cell lines were used, expressing native, non-activated and GFFKR-deleted, activated GPIIb/IIIa as described elsewhere (O'Toole et al J. Cell Biol. 1994; 124:1047-1059; Peter et al, J Exp Med. 1995; 181:315-326; Tadokoro et al Science. 2003; 302:103-106).

GPIIb/IIIa (αIIbβ3, CD41/CD61), native or GFFKR-deleted, on CHO cells, sequence (P08514 32-887 limits assumed, stated change not applied): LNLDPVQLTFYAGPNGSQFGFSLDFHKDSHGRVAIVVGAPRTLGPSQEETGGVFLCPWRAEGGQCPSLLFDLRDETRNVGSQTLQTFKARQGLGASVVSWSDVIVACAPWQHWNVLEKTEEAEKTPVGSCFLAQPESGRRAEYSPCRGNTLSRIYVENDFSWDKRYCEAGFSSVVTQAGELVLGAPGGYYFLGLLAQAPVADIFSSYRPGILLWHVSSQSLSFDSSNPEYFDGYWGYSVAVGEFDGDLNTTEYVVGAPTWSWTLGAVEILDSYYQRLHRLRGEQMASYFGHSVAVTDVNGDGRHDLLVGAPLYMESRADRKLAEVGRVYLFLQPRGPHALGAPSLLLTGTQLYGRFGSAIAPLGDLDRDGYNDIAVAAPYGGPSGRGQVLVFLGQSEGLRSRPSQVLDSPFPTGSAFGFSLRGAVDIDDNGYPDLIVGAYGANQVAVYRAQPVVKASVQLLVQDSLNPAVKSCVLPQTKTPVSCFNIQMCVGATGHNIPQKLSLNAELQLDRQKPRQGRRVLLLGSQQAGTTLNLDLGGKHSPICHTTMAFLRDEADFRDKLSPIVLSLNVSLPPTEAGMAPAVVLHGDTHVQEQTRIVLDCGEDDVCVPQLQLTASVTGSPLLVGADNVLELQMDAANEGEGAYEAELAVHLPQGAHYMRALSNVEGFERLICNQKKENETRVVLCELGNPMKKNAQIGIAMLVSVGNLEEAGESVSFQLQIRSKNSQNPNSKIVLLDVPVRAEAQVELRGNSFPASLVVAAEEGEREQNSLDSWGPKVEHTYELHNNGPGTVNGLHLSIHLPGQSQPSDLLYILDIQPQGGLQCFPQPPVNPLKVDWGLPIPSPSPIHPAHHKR
GPIIb/IIIa (αIIbβ3, CD41/CD61), native or GFFKR-deleted, on CHO cells, sequence (P08514 891-1019 limits assumed, stated change not applied): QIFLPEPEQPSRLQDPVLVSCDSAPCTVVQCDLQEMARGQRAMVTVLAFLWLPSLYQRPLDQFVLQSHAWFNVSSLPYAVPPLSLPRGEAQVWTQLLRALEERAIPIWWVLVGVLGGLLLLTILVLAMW
GPIIb/IIIa (αIIbβ3, CD41/CD61), native or GFFKR-deleted, on CHO cells, sequence (P05106 27-788, stated change not applied, further chain): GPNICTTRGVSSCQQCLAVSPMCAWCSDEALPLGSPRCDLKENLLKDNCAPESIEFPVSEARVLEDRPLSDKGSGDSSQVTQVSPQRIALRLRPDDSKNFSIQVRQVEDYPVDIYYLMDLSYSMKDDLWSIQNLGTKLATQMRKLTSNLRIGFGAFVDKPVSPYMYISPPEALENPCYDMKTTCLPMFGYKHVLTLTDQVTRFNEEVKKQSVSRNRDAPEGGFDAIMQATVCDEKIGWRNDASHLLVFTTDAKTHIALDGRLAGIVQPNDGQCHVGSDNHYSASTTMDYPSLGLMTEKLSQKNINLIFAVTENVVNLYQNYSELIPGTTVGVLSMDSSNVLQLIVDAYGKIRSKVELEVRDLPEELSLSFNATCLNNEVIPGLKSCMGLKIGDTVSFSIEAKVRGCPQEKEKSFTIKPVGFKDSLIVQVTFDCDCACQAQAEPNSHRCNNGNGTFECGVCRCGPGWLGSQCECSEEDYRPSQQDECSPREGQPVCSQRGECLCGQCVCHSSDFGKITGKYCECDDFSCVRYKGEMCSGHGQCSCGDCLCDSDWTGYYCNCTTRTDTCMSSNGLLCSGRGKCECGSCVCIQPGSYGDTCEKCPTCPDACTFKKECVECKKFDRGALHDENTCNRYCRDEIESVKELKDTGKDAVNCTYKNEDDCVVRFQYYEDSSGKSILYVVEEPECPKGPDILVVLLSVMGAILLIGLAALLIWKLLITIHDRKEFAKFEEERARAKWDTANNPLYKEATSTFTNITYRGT

Pac-1
Binding to GPIIb/IIIa: binds to the activated GPIIb/IIIa
